Measurements as given in patent US6248768A, “Benzimidazole derivatives and pharmacologically acceptable salts thereof” (Taiho Pharmaceutical Co., Ltd., priority 1997, dated 2001).

How the values were obtained:
[1] = test system: Mouse ear edema reaction (egg albumin-induced); assay: Ear Edema Reaction Inhibitory Activity in Mice; type: in vivo, BALB/c mice; settings: oral, 1 hour before induction, ear thickness 1 hour after induction
Description: Ear Edema Reaction Inhibitory Activity in Mice [Test Inflammation]
This test was test was carried out in accordance with the method of Sawada et al. (Clin. Exp. Allergy, Vol. 27, pp. 225-231, 1996). Each of BALB/c mice was immunized by the intraperitoneal injection of 1 μg of egg albumin which had been adsorbed to 1 mg of ALUM. After 14 days of the immunization, ear edema reaction was induced by intracutaneous injection of 1 μg of egg albumin into mouse earlobe. Ear edema (×10^2 mm) was calculated by measuring thickness of the ear before and 1 hour after the induction with a dial thickness gage (Peacok). Each of the drugs to be tested (compounds 1 and 2) was suspended in 0.5% hydropropylmethylcellulose (HPMC) solution and orally administered 1 hour before the reaction induction. Ear edema caused by the antigen was calculated by subtracting ear edema after respective time of induction in the case of the same treatment of normal mice, and the ear edema inhibition ratio (%) of the drugs to be tested was calculated based on the solvent-administered (control) group.

[2] = test system: Airway reactivity acceleration (antigen-induced); assay: Antigen-Induced Airway Reactivity Acceleration Inhibitory Activity in Mice [Test on Chronic Inflammation]; type: in vivo, BALB/c mice; settings: oral, once a day for 10 days, acetylcholine 30 μg/animal i.v.
Description: Antigen-Induced Airway Reactivity Acceleration Inhibitory Activity in Mice [Test on Chronic Inflammation]
The model for this test was prepared out in accordance with the method of Nagai et al. (Life Sciences, Vol. 54, pp. 471-475, 1994). Each of BALB/c mice was immunized by the intraperitoneal injection of 1 μg of egg albumin which had been adsorbed to 1 mg of ALUM. After 14 days of the immunization, each animal was exposed to 1% egg albumin solution using an ultrasonic nebulizer, and this treatment was repeated three times at 3 day intervals. After 24 hours of the final exposure, the airway contraction reaction against intravenously injected acetylcholine (30 μg/animal) was measured as overflow volume (×0.01 ml) by the modified method of Konzett and Rossler under pentobarbital anesthesia. Each of the drugs to be tested (compounds 1 and 2) was suspended in 0.5% HPMC solution and orally administered once a day for a total of 10 days starting from the day before the antigen exposure until the day of final exposure. Accelerated quantity of the airway contraction reaction caused by the antigen exposure was calculated by subtracting the contraction reaction against intravenously injected acetylcholine in the case of the same treatment of normal mice, and the airway reactivity acceleration inhibition ratio (%) of the drugs to be tested was calculated based on the solvent-administered (control) group.

[3] = test system: IL-4 production by CD4^+ T cells; assay: Interleukin-4 (IL-4) Production Inhibitory Activity; type: cell-based; settings: 24 h; mouse spleen CD4^+ T cells; IL-4 in supernatant by ELISA after 1 day; read-out: IL-4 production inhibition IC50
Description: Interleukin-4 (IL-4) Production Inhibitory Activity
This test was carried out in accordance with the method of Shelby et al. (J. Allergy Clin. Immunol., Vol. 100, No. 4, 511-519 (1997)). That is, CD4^+ T cells were purified from mouse spleen cells and suspended in 10% FCS-containing RPMI 1640 culture medium, and the cell suspension was inoculated into wells of a 24 well culture plate, which had been coated with anti-rat IgG, at a density of 3×10^6 cells per well. Anti-mouse CD3 antibody and anti-mouse CD28 antibody were added thereto, and the cells were cultured at 37° C. for 3 days in an atmosphere of 5% CO2. The thus grown cells were recovered, washed three times with HBSS (Hank's balanced salt solution) and then suspended in 10% FCS-containing RPMI 1640 culture medium. The cell suspension was inoculated into wells of a 24 well culture plate at a density of 1×10^6 cells per well, mixed with IL-2 and cultured for additional 3 days. The resulting cells were recovered, washed three times with HBSS and then suspended in 10% FCS-containing RPMI 1640 culture medium. The cell suspension was inoculated into wells of a 24 well culture plate, which had been coated with anti-rat IgG, at a density of 2×10^6 cells per well, anti-mouse CD3 antibody and anti-mouse CD28 antibody were added thereto, and the cells were again cultured for 1 day. The culture supernatant was recovered from each well to measure the amount of produced IL-4 by ELISA. Each drug to be tested was treated at the time of the second addition of anti-mouse CD3 antibody and anti-mouse CD28 antibody to calculate its inhibition percentage based on the control IL-4 production by the addition of the solvent alone, and IC50 (50% inhibition concentration) of each drug to be tested was calculated based on the regression line.

[4] = target: PDE(IV); assay: Phosphodiesterase IV (PDE (IV)) Inhibitory Activity; type: biochemical; settings: rat brain PDE(IV); 3H-cAMP 1 μM; 37° C., 10 minutes; read-out: PDE(IV) inhibition IC50
Description: Phosphodiesterase IV (PDE (IV)) Inhibitory Activity
Purification of PDE (IV) and measurement of its activity were carried out by partially modifying the method of Saeki et al. (Biochem. Pharmacol., Vol. 46, 833-839, 1993). That is, PDE(IV) was purified by centrifuging rat brain homogenate at 105,000×g, applying the resulting supernatant to a Q-Sepharose column and then eluting the protein with a density gradient of 0 to 0.5 M NaCl.
Activity of PDE(IV) was measured by the following two step procedure. Using 3H-cAMP (1 μM in final concentration) as the substrate, the reaction was carried out at 37° C. for 10 minutes in a reaction solution containing tris(hydroxyl)aminomethane (50 mM, pH B8.0), EGTA (0.1 mM) and MgCl2 (0.1 mM) and then the reaction was stopped by incubating the reaction solution at 95° C. for 5 minutes. The thus formed 5'-AMP was hydrolyzed with 5'-nucleotidase, and AG1 X-8 resin was added thereto to effect adsorption of unreacted CAMP. After centrifugation, 3H-adenosinewas counted using a scintillation counter.

[5] = test system: IL-4 production; settings: in words, background art; cited from earlier work

Row | IC50 [3] [µM] | IC50 [4] [µM] | Compound | Airway reactivity acceleration inhibition ([2]; 30 mg/kg) [%] | Mouse ear edema reaction inhibition ([1]; 30 mg/kg) [%] | also measured
1 | 6.1 | 0.54 | COc1ccc(-c2nc3ccc(-n4cncn4)cc3[nH]2)cc1OC1C=CCCC1 (stereo not drawn) [Compound 14, 2-[3-(2-cyclohexenyloxy)-4-methoxyphenyl]-5-(1,2,4-triazol-1-yl)benzimidazole] |  |  | 
2 | 4.3 | 0.02 | COc1ccc(-c2nc3ccc(-n4cncn4)cc3[nH]2)cc1OC(C)C [Compound 1, 2-(3-isopropoxy-4-methoxyphenyl)-5-(1,2,4-triazol-1-yl)benzimidazole] |  | 60 | Airway reactivity acceleration inhibition ([2]; 10 mg/kg): 58%
3 | 2.8 | 0.73 | COc1ccc(-c2nc3cc(-n4cncn4)ccc3[nH]2)cc1OC1C=CCCCC1 (stereo not drawn) [Compound 25] |  |  | 

Continued, compound first:

Row | Compound | IC50 [3] [µM] | IC50 [4] [µM] | Airway reactivity acceleration inhibition ([2]; 30 mg/kg) [%] | Mouse ear edema reaction inhibition ([1]; 30 mg/kg) [%] | also measured
4 | COc1ccc(-c2nc3cc(C(=O)O)ccc3[nH]2)cc1OC1CCCC1 [Control compound 4] |  |  | -17 |  | Mouse ear edema reaction inhibition ([1]; 100 mg/kg): 0%
5 | COc1ccc(-c2nc3cc(C(=O)O)ccc3[nH]2)cc1OC1Cc2ccccc2C1 [Control compound 5] |  |  | -3 |  | Mouse ear edema reaction inhibition ([1]; 100 mg/kg): 0%
6 | COc1ccc(-c2nc3cc(-n4cncn4)ccc3[nH]2)c(OC)c1 [Control compound 2] |  |  | 30 | 17 | 
7 | COc1ccc(-c2nc3cc(-n4cncn4)ccc3[nH]2)cc1OCC1CC1 [Compound 11] | 5.5 | 1.6 |  |  | 
8 | COc1ccc(-c2nc3ccc(-n4cncn4)cc3[nH]2)cc1OC1CCCC1 [Compound 2, 2-(3-cyclopentyloxy-4-methoxyphenyl)-5-(1,2,4-triazol-1-yl)benzimidazole] |  |  | 47 | 78 | 
9 | COc1ccc(/C(C)=N/OC(N)=O)cc1OC1CCCC1 [PDA-641] |  |  |  |  | IL-4 production inhibitory activity [5]: weak
10 | COc1ccc(-c2nc3cc(-n4cncn4)ccc3[nH]2)cc1OC/C=C/c1ccccc1 [Compound 18] | 5.1 | 0.051 |  |  | 
